Drawing on doi:10.1101/2020.07.28.225383v1 (biorxiv, 2020), this text covers Ki for four molecules.

Assay [1] has as its target SkMII (skeletal muscle myosin II). Nature of the assay: NADH-linked ATPase assay, quadratic […] binding fit. Format: biochemical.
The target of assay [2] is CMII (bovine cardiac myosin II, MYH7) (Bos taurus, UniProt Q9BE39). Described as above. Format: biochemical.
CMII (bovine cardiac myosin II, MYH7), sequence (Q9BE39 whole entry): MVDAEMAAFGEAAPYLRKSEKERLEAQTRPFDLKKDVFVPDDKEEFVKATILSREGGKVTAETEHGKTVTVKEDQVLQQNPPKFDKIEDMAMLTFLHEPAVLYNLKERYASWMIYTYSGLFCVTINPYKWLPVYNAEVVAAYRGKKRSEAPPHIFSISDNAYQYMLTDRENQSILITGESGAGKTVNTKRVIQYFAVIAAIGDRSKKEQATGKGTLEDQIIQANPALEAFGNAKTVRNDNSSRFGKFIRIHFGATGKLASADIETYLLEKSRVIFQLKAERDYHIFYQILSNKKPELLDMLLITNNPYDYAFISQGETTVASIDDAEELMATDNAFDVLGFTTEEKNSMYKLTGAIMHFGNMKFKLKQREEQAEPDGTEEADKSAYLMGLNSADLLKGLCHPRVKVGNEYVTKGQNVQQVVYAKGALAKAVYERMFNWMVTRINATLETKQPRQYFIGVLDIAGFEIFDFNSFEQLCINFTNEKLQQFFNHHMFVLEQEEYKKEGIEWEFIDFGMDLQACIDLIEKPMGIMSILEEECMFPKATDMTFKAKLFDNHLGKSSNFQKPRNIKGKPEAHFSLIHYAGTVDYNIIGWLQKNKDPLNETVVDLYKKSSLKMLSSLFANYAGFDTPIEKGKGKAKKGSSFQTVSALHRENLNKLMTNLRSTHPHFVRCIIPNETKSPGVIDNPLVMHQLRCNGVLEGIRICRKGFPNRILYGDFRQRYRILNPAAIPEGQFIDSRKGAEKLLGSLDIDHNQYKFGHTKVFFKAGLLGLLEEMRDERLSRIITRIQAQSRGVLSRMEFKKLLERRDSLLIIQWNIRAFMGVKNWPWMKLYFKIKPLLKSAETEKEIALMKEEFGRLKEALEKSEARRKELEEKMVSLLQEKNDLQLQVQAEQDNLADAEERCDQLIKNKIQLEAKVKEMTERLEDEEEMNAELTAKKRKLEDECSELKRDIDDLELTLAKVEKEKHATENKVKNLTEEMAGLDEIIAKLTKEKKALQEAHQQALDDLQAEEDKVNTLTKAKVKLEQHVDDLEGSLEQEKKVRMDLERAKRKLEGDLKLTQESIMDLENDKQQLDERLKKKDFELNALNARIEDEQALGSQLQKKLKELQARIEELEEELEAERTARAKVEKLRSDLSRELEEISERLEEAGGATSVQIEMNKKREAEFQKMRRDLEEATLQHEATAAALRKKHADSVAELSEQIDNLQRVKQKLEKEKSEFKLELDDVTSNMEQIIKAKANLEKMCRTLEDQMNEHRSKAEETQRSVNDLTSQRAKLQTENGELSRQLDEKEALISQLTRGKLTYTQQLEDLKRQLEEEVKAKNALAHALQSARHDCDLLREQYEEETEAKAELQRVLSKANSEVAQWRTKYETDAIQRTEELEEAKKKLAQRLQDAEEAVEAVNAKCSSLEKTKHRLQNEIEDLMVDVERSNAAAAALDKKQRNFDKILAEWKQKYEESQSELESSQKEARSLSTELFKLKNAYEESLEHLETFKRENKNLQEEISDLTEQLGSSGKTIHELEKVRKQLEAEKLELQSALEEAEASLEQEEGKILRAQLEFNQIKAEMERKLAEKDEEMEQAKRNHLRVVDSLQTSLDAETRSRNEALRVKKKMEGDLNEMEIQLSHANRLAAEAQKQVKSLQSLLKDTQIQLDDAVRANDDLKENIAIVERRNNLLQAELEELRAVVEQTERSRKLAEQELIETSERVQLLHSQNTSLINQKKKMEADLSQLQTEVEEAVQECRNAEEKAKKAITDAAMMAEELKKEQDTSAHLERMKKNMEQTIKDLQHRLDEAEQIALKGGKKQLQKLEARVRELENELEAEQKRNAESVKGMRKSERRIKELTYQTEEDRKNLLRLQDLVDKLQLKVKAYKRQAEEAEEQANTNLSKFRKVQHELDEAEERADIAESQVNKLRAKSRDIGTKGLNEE

For `Cc1ccc2c(c1)C(=O)[C@]1(O)CCN(c3ccccc3)C1=N2` [Blebbistatin], the Ki stood at 0.28 µM in assay [1] and 1.9 µM in assay [2].

As for `Cc1ccc2c(c1)C(=O)[C@]1(O)CCN(c3cnc4nc(C)oc4c3)C1=N2` [Skeletostatin 1, (S)-3a-hydroxy-6-methyl-1-(2-methyloxazolo[4,5-b]pyridin-6-yl)-1,2,3,3a-tetrahydro-4H-pyrrolo[2,3-b]quinolin-4-one], the figures for the Ki in assay [1] and in assay [2] were 0.48 µM and 83 µM, respectively.

Regarding `CC(=O)Nc1ccc(N2CC[C@@]3(O)C(=O)c4cc(C)ccc4N=C23)cc1` [Skeletostatin 2, (S)-N-(4-(3a-hydroxy-6-methyl-4-oxo-2,3,3a,4-tetrahydro-1H-pyrrolo[2,3-b]quinolin-1-yl)phenyl)acetamide], the Ki is 0.27 µM in assay [1] and 34 µM in assay [2].

On to `Cc1ccc2c(c1)C(=O)[C@]1(O)CCN(c3ccc(N4CCOCC4)cc3)C1=N2` [Skeletostatin 3, (S)-3a-hydroxy-6-methyl-1-(4-morpholinophenyl)-1,2,3,3a-tetrahydro-4H-pyrrolo[2,3-b]quinolin-4-one], for which the values for the Ki in assay [1] and in assay [2] were 0.79 µM and above 56 µM, respectively.
